Earlier results as cited in patent US8709476B2, “Compositions of quaternary ammonium compounds containing bioavailability enhancers” (Supernus Pharmaceuticals, Inc., priority 2003, dated 2014).

Conditions: in humans; oral dosage form

## O=C(O[C@H]1C[C@H]2CC[C@@H](C1)[N+]21CCCC1)C(O)(c1ccccc1)c1ccccc1 [Trospium chloride]
  bioavailability: up to 10%
